Among the data in patent publication US12139478B2, “Compounds, compositions and methods” (Denali Therapeutics Inc., priority 2017, dated 2024) are IC50 values, retold here.

The experiment has as its system ATF4 translation. Briefly: ATF4 Nano Luciferase reporter integrated stress response (ISR) assay in H4 ATF4-NLuc cells. Format: cell-based, human. To be noted: H4 ATF4-NLuc (clone 17) cells, compound 30 minutes, then sodium arsenite for 6 additional hours, luminescence readout. From the text: Cellular stress leads to activation of the integrated stress response pathway through one of four eukaryotic initiation factor 2a kinases and halts global translation, while allowing for the translation of select transcripts like ATF4 (activating transcription factor 4) that are important for the response to cellular stress. During normal conditions, small open reading frames (ORFs) in the 5′ UTR of ATF4 occupy the ribosome and prevent translation of the coding sequence of ATF4. During stress conditions however, the ribosome scans past these upstream ORFs and preferentially begins translation at the coding sequence of ATF4. In this way, the translation, and thus protein level of ATF4 is a readout of ISR pathway activation. Thus, a fusion of the uORFs and the beginning of the coding sequence of ATF to a common cellular reporter like nano-luciferase allows for a sensitive and high-throughput readout of ISR pathway activity.
Compounds as provided herein were tested in the following assay. The ATF4 Nano Luciferase reporter was constructed by fusing the human full length 5′ untranslated region (5′-UTR) and a small portion of the coding sequence of the ATF4 gene upstream of the Nano Luciferase (NLuc) coding sequence lacking it's start codon. Specifically, nucleotides +1 through +364 (relative to the transcriptional start site) of ATF4 transcript variant 2 (NCBI NM_182810.2) flanked 5′ by EcoRI and 3′ by BamHI restriction enzyme sites were synthesized and cloned into the EcoRI/BamHI cloning sites of pLVX-EF1a-IRES-Puro lentivirus vector (Clontech). Lentiviral particles were produced with Lenti-X single shots (VSV-G, Clontech) according to the manufacturer's instructions and used to transduce a human H4 neuroglioma cell line (ATCC HTB-148). H4 cells were selected with 1.25 μg/mL Puromycin, and clonal cell lines generated by limiting dilution. We utilized this cell line to generate an integrated stress response (ISR) assay to evaluate the activity of ISR pathway inhibitors via luminescence readout. The H4 ATF4-NLuc (clone 17) cell line is plated at a density of […] in 96-well or 384-well respectively in DMEM+[…]. 24-hours later test compounds diluted in dimethyl sulfoxide (DMSO) are added for 30 minutes at 37° C., followed by ISR pathway activation with […] sodium arsenite aqueous solution for 6 additional hours. Nano Glo luciferase reagent (N1150, Promega) is added according to manufacturer instructions and the luminescence signal (corresponding to the level of ATF4 translation and thus ISR pathway activation) is read with a standard plate reader with luminescence detection capabilities. […] In the tables below, activity of the tested compounds is provided, and in Table 3 as follows: […]; ++=IC50 1-10 μM; +=IC50>10 μM.

The mark [1] stands for this setting: Homo sapiens, 0.5 h, read-out: Activity.
The mark [2] stands for this setting: Homo sapiens, 0.5 h, read-out: Biological Example 1 (ATF4 translation, IC50 nM).

The structures appear in SMILES notation. Like-named read-outs stand apart in the source and are kept apart here.

For `O=C(COc1ccc(C(F)(F)F)nc1)N[C@@H]1CC[C@@H](c2nnc([C@H]3C[C@@H](OC(F)(F)F)C3)o2)OC1` [Example 39, N-[(3R,6S)-6-[5-[3-cis-(trifluoromethoxy)cyclobutyl]-1,3,4-oxadiazol-2-yl]tetrahydropyran-3-yl]-2-[[6-(trifluoromethyl)-3-pyridyl]oxy]acetamide], the IC50 under setting [1] is less than 1000 nM and the IC50 under setting [2] amounted to 36 nM. As to `O=C(N[C@@H]1CC[C@@H](c2nnc(C3CC(OC(F)(F)F)C3)o2)OC1)c1ccc2c(F)c(F)ccc2n1` (stereo partly drawn) [Example 76], under setting [1], the IC50 is less than 1000 nM. In the case of `O=C(N[C@@H]1CC[C@@H](c2nnc(C3CC(OC(F)(F)F)C3)o2)OC1)c1ccc2cc(F)c(F)cc2n1` (stereo partly drawn) [Example 75, 6,7-difluoro-N-((3R,6S)-6-(5-(3-cis-(trifluoromethoxy)cyclobutyl)-1,3,4-oxadiazol-2-yl)tetrahydro-2H-pyran-3-yl)quinoline-2-carboxamide], the IC50 runs as follows: under setting [1], less than 1000 nM; under setting [2], 8.9 nM. In the case of `O=C(COC1CC(OC(F)(F)F)C1)NC12CCC(c3nnc([C@H]4C[C@@H](OC(F)(F)F)C4)o3)(CC1)OC2` (stereo partly drawn) [Example 14, 2-[3-cis-(trifluoromethoxy)cyclobutoxy]-N-[1-[5-[3-cis-(trifluoromethoxy)cyclobutyl]-1,3,4-oxadiazol-2-yl]-2-oxabicyclo[2.2.2]octan-4-yl]acetamide], the IC50 under setting [1] is less than 1000 nM.

As to `O=C(COc1ccc(F)cc1F)NC12CCC(c3nnc([C@H]4C[C@@H](OC(F)(F)F)C4)o3)(CC1)OC2` [Example 34, 2-(2,4-difluorophenoxy)-N-[1-[5-[3-cis-(trifluoromethoxy)cyclobutyl]-1,3,4-oxadiazol-2-yl]-2-oxabicyclo[2.2.2]octan-4-yl]acetamide], under setting [1], the IC50 is less than 1000 nM. `O=C(N[C@@H]1CC[C@@H](c2nnc(C3CC(OC(F)(F)F)C3)o2)OC1)N1CCC(OC(F)(F)F)C1` (stereo partly drawn) [Example 51]: the IC50 under setting [1] was less than 1000 nM. Still for that read-out and setting: the value for `O=C(N[C@@H]1CC[C@@H](c2nnc(C3CC(OC(F)(F)F)C3)o2)OC1)c1cc2ccc(Cl)cc2cn1` (stereo partly drawn) [Example 44, 7-chloro-N-((3R,6S)-6-(5-(3-cis-(trifluoromethoxy)cyclobutyl)-1,3,4-oxadiazol-2-yl)tetrahydro-2H-pyran-3-yl)isoquinoline-3-carboxamide] was less than 1000 nM; that for `O=C(COc1ccc(Cl)cc1)N[C@H]1CO[C@H](c2nnc(C3CC(OC(F)(F)F)C3)o2)[C@@H](F)C1` (stereo partly drawn) [Example 68, 2-(4-chlorophenoxy)-N-((3R,5S,6R)-5-fluoro-6-(5-(3-cis-(trifluoromethoxy)cyclobutyl)-1,3,4-oxadiazol-2-yl)tetrahydro-2H-pyran-3-yl)acetamide] was less than 1000 nM; that for `O=C(COc1ccc(F)cc1)N[C@@H]1CC[C@@H](c2nc(C3CC(OC(F)(F)F)C3)no2)OC1` (stereo partly drawn) [Example 38] was less than 1000 nM. As for `O=C(COc1ccc(Cl)cc1)N[C@@H]1CC[C@@H](C(O)COC2CC(OC(F)(F)F)C2)OC1` (single isomer, unassigned) [Example 63], the IC50 by setting is: under setting [1], less than 1000 nM; under setting [2], 3.9 nM. Consider `O=C(COC1CC(OC(F)(F)F)C1)N[C@@H]1CC[C@@H](c2ccn(-c3ccc(Cl)cc3)n2)OC1` (stereo partly drawn) [Example 52], for which the IC50 is, setting by setting: under setting [1], less than 1000 nM; under setting [2], 43 nM. In the same order, the values of `O=C(COc1ccc(Cl)c(F)c1)N[C@@H]1CC[C@@H](c2nc([C@H]3C[C@@H](OC(F)(F)F)C3)no2)OC1` [Example 58, 2-(4-chloro-3-fluorophenoxy)-N-((3R,6S)-6-(3-(3-cis-(trifluoromethoxy)cyclobutyl)-1,2,4-oxadiazol-5-yl)tetrahydro-2H-pyran-3-yl)acetamide] are less than 1000 nM and 3.7 nM. Take `O=C(COc1ccc(C(F)(F)F)cc1)N[C@@H]1CC[C@@H](c2nnc([C@H]3C[C@@H](OC(F)(F)F)C3)o2)OC1` [Example 40, N-[(3R,6S)-6-[5-[3-cis-(trifluoromethoxy)cyclobutyl]-1,3,4-oxadiazol-2-yl]tetrahydropyran-3-yl]-2-[4-(trifluoromethyl)phenoxy]acetamide]: the IC50 runs as follows: under setting [1], less than 1000 nM; under setting [2], 2.4 nM. As for `COC1C[C@@H](c2nnc([C@H]3C[C@@H](OC(F)(F)F)C3)o2)OC[C@@H]1NC(=O)COc1ccc(F)cc1` (stereo partly drawn) [Example 33, 2-(4-fluorophenoxy)-N-((3S,6S)-4-methoxy-6-(5-(3-cis-(trifluoromethoxy)cyclobutyl)-1,3,4-oxadiazol-2-yl)tetrahydro-2H-pyran-3-yl)acetamide], the IC50 by setting is: under setting [1], less than 1000 nM; under setting [2], 421 nM. Take `CC(O)(COC1CC(OC(F)(F)F)C1)[C@@H]1CC[C@@H](NC(=O)COc2ccc(Cl)cc2)CO1` (single isomer, unassigned) [Example 71]: the IC50 under setting [1] was less than 1000 nM. For the molecule `O=C(COC1CC(OC(F)(F)F)C1)NC12CCC(c3cc(-c4ccc(Cl)c(F)c4)no3)(CC1)OC2` (stereo not drawn) [Example 47], the IC50 under setting [1] is less than 1000 nM. Take `COC(=O)[C@@H]1CC[C@@H](NC(=O)COc2ccc(Cl)cc2)CO1` [Example 23, Methyl (2S,5R)-5-[[2-(4-chlorophenoxy)acetyl]amino]tetrahydropyran-2-carboxylate]: the IC50 under setting [1] is 1000 to 10000 nM. For `O=C(COC1CC(OC(F)(F)F)C1)N[C@@H]1CC[C@@H](c2nnc([C@H]3C[C@@H](OC(F)(F)F)C3)o2)OC1` (stereo partly drawn) [Example 3, 2-[3-cis-(trifluoromethoxy)cyclobutoxy]-N-[(3R,6S)-6-[5-[(cis)-3-(trifluoromethoxy)cyclobutyl]-1,3,4-oxadiazol-2-yl]tetrahydropyran-3-yl]acetamide], the IC50 under setting [1] was less than 1000 nM. On to `CC(O)(COC1CC(OC(F)(F)F)C1)[C@@H]1CC[C@@H](NC(=O)COc2ccc(Cl)cc2)CO1` (single isomer, unassigned) [Example 72], for which, for the setting “read-out: Activity”, the IC50 was less than 1000 nM. `CO[C@H]1C[C@@H](NC(=O)COc2ccc(F)cc2)CO[C@@H]1c1nnc([C@H]2C[C@@H](OC(F)(F)F)C2)o1` [Example 36, 2-(4-fluorophenoxy)-N-((3R,5S,6S)-5-methoxy-6-(5-(3-cis-(trifluoromethoxy)cyclobutyl)-1,3,4-oxadiazol-2-yl)tetrahydro-2H-pyran-3-yl)acetamide]: the IC50 under setting [1] was less than 1000 nM.

As for `O=C(N[C@@H]1CC[C@@H](c2nnc(C3CC(OC(F)(F)F)C3)o2)OC1)[C@@H]1CCc2cc(F)ccc2O1` (stereo partly drawn) [Example 66, 6-fluoro-N-((3R,6S)-6-(5-(3-cis-(trifluoromethoxy)cyclobutyl)-1,3,4-oxadiazol-2-yl)tetrahydro-2H-pyran-3-yl)chroman-2-carboxamide], under setting [1], the IC50 is less than 1000 nM.

For `O=C(N[C@@H]1CC[C@@H](c2nnc(C3CC(OC(F)(F)F)C3)o2)OC1)c1nc2cc(Cl)ccc2s1` (stereo partly drawn) [Example 43, 5-chloro-N-((3R,6S)-6-(5-(3-cis-(trifluoromethoxy)cyclobutyl)-1,3,4-oxadiazol-2-yl)tetrahydro-2H-pyran-3-yl)benzo[d]thiazole-2-carboxamide], the IC50 under setting [1] was less than 1000 nM. On to `O=C(N[C@@H]1CC[C@@H](c2nnc([C@H]3C[C@@H](OC(F)(F)F)C3)o2)OC1)[C@H]1C[C@@H]1COC(F)(F)F` [Example 4, (1R,2R)—N-[(3R,6S)-6-[5-[3-cis-(trifluoromethoxy)cyclobutyl]-1,3,4-oxadiazol-2-yl]tetrahydropyran-3-yl]-2-(trifluoromethoxymethyl)cyclopropanecarboxamide], for which the IC50 under setting [1] fell in the range of 1000 to 10000 nM. On the same count and under the same terms, the value for `O=C(N[C@@H]1CC[C@@H](c2nnc(C3CC(OC(F)(F)F)C3)o2)OC1)c1ccc2cc(F)ccc2n1` (stereo partly drawn) [Example 57, 6-fluoro-N-((3R,6S)-6-(5-(3-cis-(trifluoromethoxy)cyclobutyl)-1,3,4-oxadiazol-2-yl)tetrahydro-2H-pyran-3-yl)quinoline-2-carboxamide] was less than 1000 nM. For the molecule `O=C(COc1ccc(Cl)c(F)c1)NC12CCC(c3nnc([C@H]4C[C@@H](OC(F)(F)F)C4)o3)(CC1)OC2` [Example 21, 2-(4-chloro-3-fluoro-phenoxy)-N-[1-[5-[3-cis-(trifluoromethoxy)cyclobutyl]-1,3,4-oxadiazol-2-yl]-2-oxabicyclo[2.2.2]octan-4-yl]acetamide], the IC50 is less than 1000 nM under setting [1] and 4 nM under setting [2].
